Measured values published in ChEMBL document CHEMBL1201862, “PubChem BioAssay data set” (2004).
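All cell lines were grown in 96-well plates and treated with compound for 48 hours. The concentration for 50% growth inhibition is given as GI50.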 Active and inactive are the calls of the source. No stated cut-off is given here; in the data, active = GI50 up to about 1.1 µM and inactive = higher.

Experiments:
Test in all cases: NCI-60 cell line screen, 48 h
SK-MEL-5 = system: SK-MEL-5
HOP-18 = system: HOP-18
LXFL 529 = system: LXFL 529
SK-OV-3 = system: SK-OV-3
Malme-3M = system: Malme-3M
KM-20L2 = system: KM-20L2
NCI-H522 = system: NCI-H522
HL-60 = system: HL-60
SW-620 = system: SW-620
SN12C = system: SN12C
KM12 = system: KM12
CCRF-CEM = system: CCRF-CEM
SF-268 = system: SF-268
SF-539 = system: SF-539
HCT-15 = system: HCT-15
ACHN = system: ACHN
786-0 = system: 786-0
SNB-75 = system: SNB-75
RXF 393 = system: RXF 393
HOP-62 = system: HOP-62
OVCAR-3 = system: OVCAR-3
K562 = system: K562
TK-10 = system: TK-10
SR = system: SR
M14 = system: M14
HCT-116 = system: HCT-116
NCI-H226 = system: NCI-H226
RXF 631 = system: RXF 631
HCC 2998 = system: HCC 2998
SNB-19 = system: SNB-19
UACC-257 = system: UACC-257
DMS-114 = system: DMS-114
CAKI-1 = system: CAKI-1
MOLT-4 = system: MOLT-4
SNB-78 = system: SNB-78
SK-MEL-2 = system: SK-MEL-2
UO-31 = system: UO-31
U-251 = system: U-251
IGROV-1 = system: IGROV-1
RPMI-8226 = system: RPMI-8226
DMS-273 = system: DMS-273
SK-MEL-28 = system: SK-MEL-28
NCI-H460 = system: NCI-H460
A549 = system: A549
M19-MEL = system: M19-MEL
OVCAR-4 = system: OVCAR-4
COLO 205 = system: COLO 205
A498 = system: A498
OVCAR-8 = system: OVCAR-8
DLD-1 = system: DLD-1
UACC-62 = system: UACC-62
XF498 = system: XF498
HT-29 = system: HT-29
SF-295 = system: SF-295
EKVX = system: EKVX
LOX IMVI = system: LOX IMVI
OVCAR-5 = system: OVCAR-5
HOP-92 = system: HOP-92
NCI-H23 = system: NCI-H23

N#C[C@]12CC3(CC[C@H]1CC1(C2)OCCO1)OCCO3
GI50 (SK-MEL-5): > 100 µM (inactive) | GI50 (HOP-18): > 100 µM (inactive) | GI50 (LXFL 529): > 100 µM (inactive) | GI50 (SK-OV-3): > 100 µM (inactive) | GI50 (Malme-3M): > 100 µM (inactive) | GI50 (KM-20L2): > 100 µM (inactive) | GI50 (NCI-H522): > 100 µM (inactive) | GI50 (HL-60): > 100 µM (inactive) | GI50 (SW-620): > 100 µM (inactive) | GI50 (SN12C): > 100 µM (inactive) | GI50 (KM12): > 100 µM (inactive) | GI50 (CCRF-CEM): > 100 µM (inactive) | GI50 (SF-268): > 100 µM (inactive) | GI50 (SF-539): > 100 µM (inactive) | GI50 (HCT-15): > 100 µM | GI50 (ACHN): > 100 µM (inactive) | GI50 (786-0): > 100 µM (inactive) | GI50 (SNB-75): > 100 µM (inactive) | GI50 (RXF 393): > 100 µM (inactive) | GI50 (HOP-62): > 100 µM (inactive) | GI50 (OVCAR-3): > 100 µM (inactive) | GI50 (K562): > 100 µM (inactive) | GI50 (TK-10): > 100 µM (inactive) | GI50 (SR): > 100 µM (inactive) | GI50 (M14): > 100 µM (inactive) | GI50 (HCT-116): > 100 µM (inactive) | GI50 (NCI-H226): > 100 µM (inactive) | GI50 (RXF 631): > 100 µM (inactive) | GI50 (HCC 2998): > 100 µM (inactive) | GI50 (SNB-19): > 100 µM (inactive) | GI50 (UACC-257): > 100 µM (inactive) | GI50 (DMS-114): > 100 µM (inactive) | GI50 (CAKI-1): > 100 µM (inactive) | GI50 (MOLT-4): > 100 µM (inactive) | GI50 (SNB-78): > 100 µM (inactive) | GI50 (SK-MEL-2): > 100 µM (inactive) | GI50 (UO-31): > 100 µM (inactive) | GI50 (U-251): > 100 µM (inactive) | GI50 (IGROV-1): > 100 µM (inactive) | GI50 (RPMI-8226): > 100 µM (inactive) | GI50 (DMS-273): > 100 µM (inactive) | GI50 (SK-MEL-28): > 100 µM (inactive) | GI50 (NCI-H460): > 100 µM (inactive) | GI50 (A549): > 100 µM (inactive) | GI50 (M19-MEL): > 100 µM (inactive) | GI50 (OVCAR-4): > 100 µM (inactive) | GI50 (COLO 205): > 100 µM (inactive) | GI50 (A498): > 100 µM (inactive) | GI50 (OVCAR-8): > 100 µM (inactive) | GI50 (DLD-1): > 100 µM (inactive) | GI50 (UACC-62): > 100 µM (inactive)

CNC1=Nc2ccc(Cl)cc2C(c2ccccc2)=NN1C
GI50 (SK-MEL-5): 49.1 µM (inactive) | GI50 (LXFL 529): > 100 µM (inactive) | GI50 (Malme-3M): 42.9 µM (inactive) | GI50 (KM-20L2): > 100 µM (inactive) | GI50 (NCI-H522): > 100 µM (inactive) | GI50 (HL-60): 46 µM (inactive) | GI50 (XF498): 31.6 µM (inactive) | GI50 (SW-620): > 100 µM (inactive) | GI50 (SN12C): > 100 µM (inactive) | GI50 (KM12): > 100 µM (inactive) | GI50 (CCRF-CEM): 83.8 µM (inactive) | GI50 (SF-268): 57.9 µM (inactive) | GI50 (SF-539): > 100 µM (inactive) | GI50 (HCT-15): > 100 µM | GI50 (HT-29): 56.5 µM (inactive) | GI50 (SF-295): 84.7 µM (inactive) | GI50 (ACHN): > 100 µM (inactive) | GI50 (786-0): 54.7 µM (inactive) | GI50 (SNB-75): 23.4 µM (inactive) | GI50 (RXF 393): 17.5 µM (inactive) | GI50 (HOP-62): > 100 µM (inactive) | GI50 (OVCAR-3): 45.4 µM (inactive) | GI50 (K562): 51.2 µM (inactive) | GI50 (TK-10): 84.3 µM (inactive) | GI50 (M14): > 100 µM (inactive) | GI50 (HCT-116): 66.7 µM (inactive) | GI50 (NCI-H226): > 100 µM (inactive) | GI50 (RXF 631): 74 µM (inactive) | GI50 (HCC 2998): 24.9 µM (inactive) | GI50 (SNB-19): > 100 µM (inactive) | GI50 (UACC-257): 83 µM (inactive) | GI50 (DMS-114): 53.2 µM (inactive) | GI50 (CAKI-1): 28.5 µM (inactive) | GI50 (MOLT-4): 36.2 µM (inactive) | GI50 (SNB-78): > 100 µM (inactive) | GI50 (SK-MEL-2): 73.5 µM (inactive) | GI50 (EKVX): > 100 µM (inactive) | GI50 (UO-31): 35.5 µM (inactive) | GI50 (LOX IMVI): 60.4 µM (inactive) | GI50 (U-251): > 100 µM (inactive) | GI50 (IGROV-1): > 100 µM (inactive) | GI50 (RPMI-8226): 31.3 µM (inactive) | GI50 (DMS-273): > 100 µM (inactive) | GI50 (OVCAR-5): > 100 µM (inactive) | GI50 (SK-MEL-28): > 100 µM (inactive) | GI50 (NCI-H460): > 100 µM (inactive) | GI50 (A549): > 100 µM (inactive) | GI50 (HOP-92): 27.6 µM (inactive) | GI50 (M19-MEL): > 100 µM (inactive) | GI50 (OVCAR-4): > 100 µM (inactive) | GI50 (COLO 205): > 100 µM (inactive) | GI50 (NCI-H23): > 100 µM (inactive) | GI50 (A498): 91.2 µM (inactive) | GI50 (OVCAR-8): > 100 µM (inactive) | GI50 (DLD-1): > 100 µM (inactive) | GI50 (UACC-62): > 100 µM (inactive)

COc1ccc(/C(Cl)=C(\C=O)c2ccc(Cl)cc2)cc1OC
GI50 (SK-MEL-5): 9.25 µM (inactive) | GI50 (HOP-18): 19.1 µM (inactive) | GI50 (LXFL 529): 7.28 µM (inactive) | GI50 (SK-OV-3): 34.8 µM (inactive) | GI50 (Malme-3M): 34.9 µM (inactive) | GI50 (KM-20L2): 7.62 µM (inactive) | GI50 (NCI-H522): 2.47 µM (inactive) | GI50 (HL-60): 2.55 µM (inactive) | GI50 (SW-620): 3.75 µM (inactive) | GI50 (SN12C): 3.72 µM (inactive) | GI50 (CCRF-CEM): 2.98 µM (inactive) | GI50 (SF-268): 12.3 µM (inactive) | GI50 (SF-539): 9.79 µM (inactive) | GI50 (HCT-15): 3.29 µM | GI50 (HT-29): 4.97 µM (inactive) | GI50 (SF-295): 4.15 µM (inactive) | GI50 (ACHN): 3.18 µM (inactive) | GI50 (SNB-75): 3.85 µM (inactive) | GI50 (RXF 393): 6.01 µM (inactive) | GI50 (HOP-62): 15.9 µM (inactive) | GI50 (OVCAR-3): 5.74 µM (inactive) | GI50 (K562): 3.69 µM (inactive) | GI50 (TK-10): 5.26 µM (inactive) | GI50 (SR): 2.49 µM (inactive) | GI50 (M14): 22.4 µM (inactive) | GI50 (HCT-116): 4.33 µM (inactive) | GI50 (NCI-H226): 4.59 µM (inactive) | GI50 (RXF 631): 3.69 µM (inactive) | GI50 (HCC 2998): 14.9 µM (inactive) | GI50 (SNB-19): 6.73 µM (inactive) | GI50 (UACC-257): 6.55 µM (inactive) | GI50 (DMS-114): 4.47 µM (inactive) | GI50 (CAKI-1): 4.59 µM (inactive) | GI50 (MOLT-4): 2.12 µM (inactive) | GI50 (SNB-78): 5.82 µM (inactive) | GI50 (SK-MEL-2): 3.71 µM (inactive) | GI50 (EKVX): 4.47 µM (inactive) | GI50 (UO-31): 4.68 µM (inactive) | GI50 (LOX IMVI): 3.45 µM (inactive) | GI50 (U-251): 3.85 µM (inactive) | GI50 (IGROV-1): 8.89 µM (inactive) | GI50 (RPMI-8226): 3.32 µM (inactive) | GI50 (DMS-273): 3.72 µM (inactive) | GI50 (OVCAR-5): 85.1 µM (inactive) | GI50 (NCI-H460): 3.54 µM (inactive) | GI50 (A549): 6.17 µM (inactive) | GI50 (M19-MEL): 9.12 µM (inactive) | GI50 (OVCAR-4): 5.12 µM (inactive) | GI50 (COLO 205): 3.77 µM (inactive) | GI50 (NCI-H23): 3.01 µM (inactive) | GI50 (A498): 23.7 µM (inactive) | GI50 (OVCAR-8): 4.03 µM (inactive) | GI50 (DLD-1): 5.12 µM (inactive) | GI50 (UACC-62): 5.97 µM (inactive)
